Consider two molecules from patent EP4474386A1, “ANTHRACYCLINES” (priority 2023, dated 2024).

pIC50: −log10 of the molar value. Entries after “also recorded” stand apart in the source; their conditions may differ.

In series [1] the test system is MelJuSo-PAGFP-H2A cells. The series is described as follows: Assay 4: Microscopy analysis, PAGFP-H2A photoactivation and time-lapse confocal imaging (histone eviction). The class given is cell-based, human. The following applies: 10 µM, 1 hour time-lapse; FIG. 4A. On the procedure:
For PAGFP-H2A photoactivation and time-lapse confocal imaging, cells were seeded in a 35mm glass bottom petri dish (Poly-dlysine-Coated, MatTek Corporation), and imaged 16 hours later as described in Pang, B., Qiao, X., Janssen, L. et al. Nat Commun 4, 2013, 1908 for one hour following addition of 10µM of the indicated drugs. Time-lapse confocal imaging was performed on a Leica SP8 confocal microscope system 63x lens, equipped with a climate chamber. Movies were quantified using imaged software.
Assay 4. This assay visualised histone eviction and subsequently, the chromatin damage induced by the compounds embodying the present invention could be assessed. The method followed is described in the assay for microscopy analysis described herein.

Series [2] has as its system human myelogenous leukemic cell line K562. Nature of the series: Assay 1: Short-term growth inhibition viability assay (CellTiter-Blue). The class given is cell-based. As to conditions: K562 cells. On the procedure:
Cells were seeded into 96-well format (e.g. 2000 cells/well for K562, Mjs, or U2O cells). 24 hours after seeding, cells were treated with indicated compounds for 2 hours at various concentrations. Subsequently, compounds were removed, and cells were left to grow for an additional 72 hours. Cell viability was measured using the CellTiter-Blue viability assay (Promega). Relative survival was normalized to the untreated control and corrected for background signal.
K562 cells (B. Pang, Leiden University Medical Center, the Netherlands) were maintained in RPMI-1640 medium supplemented with 8% FCS. MelJuSo cells were maintained in IMDM supplemented with 8% FCS. MelJuSo cells stably expressing PAGFP-H2A were maintained in IMDM supplemented with 8% FCS and G-418, as described in Pang, B., Qiao, X., Janssen, L. et al. Nat Commun 4, 1908 (2013). U2Os cells (ATCC® HTB-96) were maintained in DMEM medium supplemented with 8% FCS. Cell lines were maintained in a humidified atmosphere of 5% CO2 at 37°C, regularly tested for the absence of mycoplasma and the origin of cell lines was validated using STR analysis.
Assay 1. Anthracyclines are often used in the treatment of acute myeloid leukaemia and other haematological malignancies. Therefore, the compounds shown in FIG. 1 were assayed for their activity versus human myelogenous leukemic cell line K562 in order to determine their cytotoxicity in vitro, using the assay for short-term growth inhibition viability described herein. […] IC50 is expressed in µM and represents the concentration of compound required to inhibit cell proliferation by 50%.

Series [3] has as its system DNA double-strand breaks in K562 cells. The series is described as follows: Assay 2: Constant-field gel electrophoresis (CFGE), DNA double-strand breaks. The class given is cell-based, human. As to conditions: 10 µM, 2 hours, FIGS. 3C & 3D. On the procedure:
Cells were seeded into 12-well format (e.g. 250.000 cells/well for K562, or Mjs), treated with indicated drugs at 10 µM for 2 hours. Subsequently, drugs were removed by extensive washing and cells were collected and processed immediately for the assays. DNA double strand breaks were quantified by constant-field gel electrophoresis as described in Wlodek D., Banáth J., & Olive P. L., International Journal of Radiation Biology, 1991, 60:5, 779-790. Images were quantified using imaged software.
Assay 2. Because anthracycline drugs can also evict histones, including H2AX, the levels of phosphorylated H2AX might be affected. To determine DNA double-strand break induction by the compounds embodying the present invention at the DNA level, we assessed the DNA damage capacity of all the compounds by using constant field gel electrophoresis (CFGE), as described below, a more direct method to detect DNA breaks. The results are set out in FIGS. 3C & 3D.

The test system of series [4] is γH2AX levels in K562 cells. Nature of the series: Assay 3: Western blot of γH2AX levels (DNA damage). The class given is cell-based, human. As to conditions: 10 µM, 2 h, FIGS. 3A & 3B. On the procedure: Cells were seeded into 12-well format (e.g. 250.000 cells/well for K562, or Mjs), treated with indicated drugs at 10 µM for 2 hours. Subsequently, drugs were removed by extensive washing and cells were collected and processed immediately for the assays. Cells were lysed directly in SDS-sample buffer (2%SDS, 10% glycerol, 5% β-mercaptoethanol, 60mM Tris-HCl pH 6.8 and 0.01% bromophenol blue). Samples were separated by SDS-PAGE and transferred to a PVDF membrane (Immobilon-P, 0.45µm, Millipore). Blocking of the filters and antibody incubations were done in PBS supplemented with 0.1 (v/v)% Tween and 5% (w/v) milk powder (Skim milk powder, LP0031, Oxiod). Blots were imaged by the Odyssey Classic imager (Li-Cor). Intensity of bands was quantified using imaged or Image Studio software. For CFGE: DNA double strand breaks were quantified by constant-field gel electrophoresis as described in Wlodek D., Banáth J., & Olive P. L., International Journal of Radiation Biology, 1991, 60:5, 779-790. Images were quantified using imaged software.
Primary antibodies used for Western blotting: γH2AX (1:1000, 05-036, Millipore), β-actin (1:10000, A5441, Sigma). […]
Assay 3. […] This was determined by assessing γH2AX levels (see Kuo, L. J., Yang, L. X. In Vivo. April 2008, pp 305-310) using the assay for Western blot analysis described herein. […]

`CC(=O)[C@]1(O)Cc2c(O)c3c(c(O)c2[C@@H](O[C@H]2C[C@H](N(C)C)[C@H](O[C@H]4C[C@H](O)[C@H](O[C@H]5CCC(=O)[C@H](C)O5)[C@H](C)O4)[C@H](C)O2)C1)C(=O)c1ccccc1C3=O` [Compound 26, 7-[2,3-Dideoxy-4-ulo-α-L-fucopyranosyl-2-deoxy-α-L-fucopyranosyl-(1→4)- -2,3-dideoxy-3-dimethylamino-α-L-fucopyranoside]-idarubicinone]: the “chromatin damage / rate of histone eviction (in words)” value in series [1] is “superior chromatin damage activity relative to doxorubicin (1); also recorded: fastest histone eviction activity; also recorded: more efficient in terms of histone eviction”. Also, the “cytotoxicity (in words, compared with reference anthracyclines)” value in series [2] (FIG. 2A) is “considerably more cytotoxic than doxorubicin (1); also recorded: most effective compound tested; also recorded: more toxic than doxorubicin (1), aclarubicin (2) and idarubicin (17)”. The molecule further showed a negative logarithm of the IC50 (pIC50) in series [2] (2 hours treatment, then 72 hours growth) of 7.70. Moreover, the “times more cytotoxic than doxorubicin (1)” value in series [2] (relative to doxorubicin (1)) is given as 16 times. Moreover, the “DNA double-strand break induction (CFGE)” value in series [3] was “do not induce DNA; also recorded: not inducing any DNA double-strand breaks”. Further, in series [4], the “DNA damage (γH2AX levels)” value is reported as “did not induce DNA damage”.
As for `CC(=O)[C@]1(O)Cc2c(O)c3c(c(O)c2[C@@H](O[C@H]2C[C@H](N(C)C)[C@H](O)[C@H](C)O2)C1)C(=O)c1ccccc1C3=O` [Compound 18, N,N-dimethylidarubicin], in series [1], the “chromatin damage / rate of histone eviction (in words)” value was “superior chromatin damage activity relative to doxorubicin (1); also recorded: improved or comparable toxicity and rate of histone eviction relative to doxorubicin (1) and idarubicin (17)”. The “DNA double-strand break induction (CFGE)” value in series [3] was “do not induce DNA; also recorded: does not induce any DNA double-strand breaks”. Moreover, the “DNA damage (γH2AX levels)” value in series [4] is on record as “did not induce DNA damage”.
